In this assay the test system is UT7/EPO Cell line. In words: Cell Proliferation Assay (UT7/EPO, ViaLight Plus). Conditions: proliferative effect; compounds at 10 uM; UT7/EPO cells starved of EPO overnight; 72 hours at 37° C.; ViaLight Plus kit. The format is cell-based, human. The procedure, abridged:
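UT7/EPO human leukemia cells (endogenous EPO receptor, EPO-dependent growth) were EPO-starved overnight, then exposed to compounds at 10 uM for 72 hours at 37° C. Proliferation was read out by ATP-based luminescence (ViaLight Plus).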

With `O=C(Nc1ccc2c(ccn2-c2ccc(C(=O)NC3CC3)cc2)c1)c1ccc2c(ccn2CCN2CCOCC2)c1` [Compound 960, N-(1-(4-(Cyclopropylcarbamoyl)phenyl)-1H-indol-5-yl)-1-(2-morpholinoethyl)-1H-indole-5-carboxamide], the “Activity (%)” value turned out to be 17%. The result for `O=C(O)CNC(=O)Cn1ccc2cc(NC(=O)c3ccc(-n4ccc5cc(NC(=O)c6ccc(N7CCC(O)CC7)cc6)ccc54)cc3)ccc21` [Compound 975] reads 17%; that for `O=C(Nc1ccc(-n2ncc3cc(O)ccc32)cc1)c1ccc(N2CCC(O)CC2)cc1` [Compound 990, N-(4-(5-(Hydroxy)-1H-indazol-1-yl)phenyl)-4-(4-hydroxypiperidin-1-yl)benzamide], 10%; that for `O=C(Nc1ccc2c(cnn2-c2ccc(NC(=O)c3cnc4cc[nH]c4c3)cc2)c1)c1ccc(N2CCC(O)CC2)cc1` [Compound 1005, N-(4-(5-(4-(4-Hydroxypiperidin-1-yl)benzamido)-1H-indazol-1-yl)phenyl)-1H-pyrrolo[3,2-b]pyridine-6-carboxamide], 13%. The result for `CCOC(=O)c1ccc(-n2ncc3cc(NC(=O)c4ccc(N5CCC(O)CC5)cc4)ccc32)cc1` [Compound 1030, Ethyl 4-(5-(4-(4-hydroxypiperidin-1-yl)benzamido)-1H-indazol-1-yl)benzoate] reads 10%; that for `N#CCNC(=O)c1ccc(-n2ncc3cc(NC(=O)c4ccc(N5CCC(O)CC5)cc4)ccc32)cc1` [Compound 1045, N-(Cyanomethyl)-4-(5-(4-(4-hydroxypiperidin-1-yl)benzamido)-1H-indazol-1-yl)benzamide], 15%.

As to `O=C(NC1CC1)c1ccc(-n2cnc3cc(NC(=O)c4cc5ccccc5[nH]4)ccc32)cc1` [Compound 1060, N-(1-(4-(Cyclopropylcarbamoyl)phenyl)-1H-benzo[d]imidazol-5-yl)-1H-indole-2-carboxamide], the “Activity (%)” value came to 18%.

For the compound `Cn1ccc(C(=O)Nc2ccc(-n3cc(C4CC4)c4cc(NC(=O)c5ccc(N6CCC(O)CC6)cc5)ccc43)cc2)c1` [Compound 1070, N-(4-(3-cyclopropyl-5-(4-(4-hydroxypiperidin-1-yl)benzamido)-1H-indol-1-yl)phenyl)-1-methyl-1H-pyrrole-3-carboxamide], the “Activity (%)” value is 15%. The figure for `CN(C)c1ccc(C(=O)Nc2ccc(-c3nc4cc(NC(=O)c5ccc(N(C)C)cc5)ccc4[nH]3)cc2)cc1` [Compound 1700, 4-Dimethylamino-N-(4-(5-(4-dimethylaminobenzamido)-1H-benzimidazol-2-yl)phenyl)benzamide] is 17%; for `COC(=O)c1ccc(C(=O)Nc2ccc3[nH]c(-c4ccccc4)nc3c2)cc1` [Compound 1705, Methyl 4-(2-phenyl-1H-benzimidazol-5-ylcarbamoyl)-benzoate] it is 12%. For `CN1CCN(c2ccc3nc(-c4ccc5[nH]c(-c6ccccc6)nc5c4)[nH]c3c2)CC1` [Compound 1710, 5-(6-(4-Methylpiperazino)-1H-benzimidazol-2-yl)-2-phenyl-1H-benzimidazole], the “Activity (%)” value is listed as 11%. For the compound `Nc1ccc(C(=O)Nc2ccc(-c3nc4c(Cl)c(NC(=O)c5ccc(N)cc5)ccc4[nH]3)cc2)cc1` [Compound 1715, 4-Amino-N-(4-(5-(4-aminobenzamido)-4-chloro-1H-benzimidazol-2-yl)phenyl)benzamide], the “Activity (%)” value amounted to 10%. The figure for `O=C(O)c1ccc(-c2nc3cc(NC(=O)c4ccc(N5CCCC5)cc4)ccc3[nH]2)cc1` [Compound 1719] is 17%; for `COc1cccc(C(=O)Nc2ccc3[nH]c(-c4ccccc4)nc3c2)c1` [Compound 1724, 3-Methoxy-N-(2-phenyl-1H-benzimidazol-5-yl)benzamide] it is 13%. The figure for `COc1ccc(-c2nc3cc(NC(=O)c4ccc(-n5cccc5)cc4)ccc3[nH]2)cc1` [Compound 1729, N-(2-(4-Methoxyphenyl)-1H-benzimidazol-5-yl)-4-pyrrolylbenzamide] is 14%; for `CN(C)c1ccc(C(=O)Nc2ccc3[nH]c(-c4ccc5c(ccn5C)c4)nc3c2)cc1` [Compound 1734, N-(2-(1-Methyl-1H-indol-5-yl)benzimidazol-5-yl)-4-dimethylaminobenzamide] it is 20%; for `COC(=O)c1ccc(C(=O)Nc2ccc3[nH]c(-c4ccc(OC)cc4)nc3c2)cc1` [Compound 1739, Methyl 4-(2-(4-methoxyphenyl)-1H-benzimidazol-5-ylcarbamoyl)-benzoate] it is 19%. The result for `CN(C)c1ccc(-c2nc3cc(-c4ccc5[nH]c(-c6ccc(N(C)C)cc6)nc5c4)ccc3[nH]2)cc1` [Compound 1744, 4,4′-(5,5′-Bibenzimidazole-2,2′-diyl)bis(N,N-dimethylaniline)] reads 11%; that for `O=C(Nc1ccccc1)c1ccc(-c2nc3cc(NC(=O)c4ccccc4)ccc3[nH]2)cc1` [Compound 1747, N-Phenyl-4-(5-benzamido-1H-benzimidazol-2-yl)benzamide], 19%.

For the origin of these results see patent publication US9144557B2, “Hematopoietic growth factor mimetic small molecule compounds and their uses” (Ligand Pharmaceuticals Inc., priority 2009, dated 2015).
